Counter-ions that a name gives are not always drawn. Like-named read-outs stand apart in the source and are kept apart here.
Columns and labels:
HCT116 cells = test: Inhibitory effect against cancer cell proliferation (MTT); format: cell-based, human; details: Homo sapiens, HCT-116; HCT116, MTT, 48 hours; read-out: IC50 (uM) @ HCT116
Procedure: The formazane crystals thus formed were dissolved using dimethyl sulfoxide (DMSO) and absorbance of the solution was measured at 560 nm. After culturing for 48 hours, […] synthesized in Examples was indicated as cell viability (%) according to each treated concentration.

AMPKa [pT172] = test: AMPKa activation [pT172] in MCF7 cell; format: cell-based; details: 50 uM
A549 cell line = test: Oxygen consumption rate (OCR) and extracellular acidification rate (ECAR) in A549 cells; format: cell-based; details: Homo sapiens, A549, 3 hrs, control group set at 0%, phenformin set at 100%
Procedure: A549 cell line (purchased from ATCC-American Type Culture Collection (ATCC)), a lung cancer cell line, is treated with the compounds and OCR and ECAR of the cells are measured and thereby those compounds which show an improved effect compared to phenformin are selected.
The cells are plated on an XF96 cell culture plate containing RPMI1640 medium at a concentration of 5×10^3 cells and cultured in 37° C., 5% CO2 conditions to allow them to be attached thereto.
After 24 hours, the cells are treated with the drug at a concentration of 10 μM for 2 hours, the existing medium is washed with a medium for XF analysis (15 mM D-glucose, 15 mM sodium pyruvate, 4 mM L-glutamine, pH 7.4) to remove the medium using a Prep station and treated again with the drugs, and cultured in 37° C., non-CO2 conditions in the Prep station for 1 hour. While culturing in the Prep station, a sensor cartridge is calibrated for 1 hour and added into a plate containing cells, and OCR and ECAR analyses are performed.
The measured values of OCR and ECAR of the compounds are calculated with reference to the measured values of OCR and ECAR of the control group which is set at 0% and the values of OCR and ECAR of phenformin, which was used as the reference drug, set at 100%, and those compounds which show an improved effect compared to those of phenformin are selected.
From the primarily-selected compounds, those compounds which show an improved effect are treated at various concentrations (0 μM, 0.5 μM, 1 μM, 5 μM, 10 μM, and 20 μM) and their reactivity according to concentration was obtained.

IC50 (HCT116 cells) [µM] | Compound | AMPKa activation [pT172] (Unit/ml) @ MCF7 cell (AMPKa [pT172]) [Unit/ml] | Emax at 10 µM (A549 cell line; read-out: ECAR (A549, 3 hrs)) [%] | Emax at 10 µM (A549 cell line; read-out: OCR (A549, 3 hrs)) [%]
> 100 | Cl.N=C(N)NC(=N)N1CCN(c2ccccn2)CC1 [Example 127, N1-4-(pyridin-2-yl)piperazine Biguanide Hydrochloride] | 5.8 | 7 | 10.2
> 100 | Cl.N=C(N)NC(=N)Nc1ccc(N2CCOCC2)cc1 [Example 122, N1-(4-morpholin-4-yl)phenyl Biguanide Hydrochloride] | 5.9 | 15.5 | 13.3
101 | N=C(N)NC(=N)Nc1ccc(Br)cc1 [Example 116, N1-(4-bromo)phenyl Biguanide Hydrochloride] | 25.9 | -24 | 0
